The results in this text go back to US10168342B2, “Lipid probes and uses thereof” (THE SCRIPPS RESEARCH INSTITUTE, priority 2015, dated 2019).

Holding throughout (test): isoTOP-ABPP mapping of AEA-DA-modified peptides in Neuro2a cells
Format in all cases: cell-based

In assay [1] the target is T1, AEA-DA-modified peptides in Neuro2a cells (Mus musculus, UniProt Q8BMG8).
T1 construct: endogenous in cells; host or cells: Neuro2a
The conditions noted are these: AEA-DA-modified peptide SLC25A32 Q8BMG8 115-146, SEQ ID NO 104; probe 100 μM, 12 replicates.

In assay [2] the target is T2, AEA-DA-modified peptides in Neuro2a cells (Mus musculus, UniProt O55234).
T2 construct: endogenous in cells; host or cells: Neuro2a
T2 sequence (O55234 60-264): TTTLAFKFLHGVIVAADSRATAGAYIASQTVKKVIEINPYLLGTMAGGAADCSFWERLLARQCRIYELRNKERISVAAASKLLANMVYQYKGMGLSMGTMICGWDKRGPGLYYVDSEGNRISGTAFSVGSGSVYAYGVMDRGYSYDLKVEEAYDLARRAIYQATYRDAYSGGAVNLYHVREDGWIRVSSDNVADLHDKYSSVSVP
The conditions noted are these: AEA-DA-modified peptide PSMB5 O55234 141-151, SEQ ID NO 91; probe 100 μM, 12 replicates.

For assay [3], the target named is T3, AEA-DA-modified peptides in Neuro2a cells (Mus musculus, UniProt Q8BH04).
T3 construct: endogenous in cells; host or cells: Neuro2a
T3 sequence (Q8BH04 33-640): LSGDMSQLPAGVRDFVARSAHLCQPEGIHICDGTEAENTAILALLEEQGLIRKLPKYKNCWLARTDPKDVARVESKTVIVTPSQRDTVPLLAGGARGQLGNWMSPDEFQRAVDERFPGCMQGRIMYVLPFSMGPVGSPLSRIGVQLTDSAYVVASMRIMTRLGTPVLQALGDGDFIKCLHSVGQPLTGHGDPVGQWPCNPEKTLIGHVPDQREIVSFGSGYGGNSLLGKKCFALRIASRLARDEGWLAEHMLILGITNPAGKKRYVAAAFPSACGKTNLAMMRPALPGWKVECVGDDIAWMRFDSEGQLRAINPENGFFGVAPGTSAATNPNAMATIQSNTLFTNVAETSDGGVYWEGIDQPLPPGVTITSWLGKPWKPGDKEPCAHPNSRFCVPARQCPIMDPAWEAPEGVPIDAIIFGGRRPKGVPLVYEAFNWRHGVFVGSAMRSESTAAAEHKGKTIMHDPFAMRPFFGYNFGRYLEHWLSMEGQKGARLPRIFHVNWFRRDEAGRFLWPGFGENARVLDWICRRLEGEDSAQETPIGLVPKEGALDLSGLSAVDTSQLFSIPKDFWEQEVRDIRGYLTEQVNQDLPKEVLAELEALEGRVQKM
Particulars: AEA-DA-modified peptide PCK2 Q8BH04 245-262, SEQ ID NO 79; probe 100 μM, 12 replicates.

In assay [4] the target is T4, AEA-DA-modified peptides in Neuro2a cells (Mus musculus, UniProt P14733).
T4 construct: endogenous in cells; host or cells: Neuro2a
T4 sequence (P14733 whole entry): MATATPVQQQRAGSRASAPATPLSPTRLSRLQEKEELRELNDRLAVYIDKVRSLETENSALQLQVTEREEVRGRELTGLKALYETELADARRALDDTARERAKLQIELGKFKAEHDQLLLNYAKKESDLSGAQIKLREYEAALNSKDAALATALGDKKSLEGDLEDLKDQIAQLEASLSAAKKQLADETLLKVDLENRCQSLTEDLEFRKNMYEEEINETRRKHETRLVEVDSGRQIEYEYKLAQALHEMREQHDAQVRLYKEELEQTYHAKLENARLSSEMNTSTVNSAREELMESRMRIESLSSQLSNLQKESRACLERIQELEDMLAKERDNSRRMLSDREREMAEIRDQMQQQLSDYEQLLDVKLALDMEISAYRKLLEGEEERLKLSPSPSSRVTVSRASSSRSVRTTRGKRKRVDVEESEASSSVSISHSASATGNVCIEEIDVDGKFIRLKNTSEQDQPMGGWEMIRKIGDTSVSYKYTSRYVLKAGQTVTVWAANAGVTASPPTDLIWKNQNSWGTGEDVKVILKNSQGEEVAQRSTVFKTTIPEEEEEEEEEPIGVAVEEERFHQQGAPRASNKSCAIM
The conditions noted are these: AEA-DA-modified peptide LMNB1 P14733 159-183, SEQ ID NO 56; probe 100 μM, 12 replicates.

The target of assay [5] is T5, AEA-DA-modified peptides in Neuro2a cells (Mus musculus, UniProt P10649).
T5 construct: endogenous in cells; host or cells: Neuro2a
T5 sequence (P10649 whole entry): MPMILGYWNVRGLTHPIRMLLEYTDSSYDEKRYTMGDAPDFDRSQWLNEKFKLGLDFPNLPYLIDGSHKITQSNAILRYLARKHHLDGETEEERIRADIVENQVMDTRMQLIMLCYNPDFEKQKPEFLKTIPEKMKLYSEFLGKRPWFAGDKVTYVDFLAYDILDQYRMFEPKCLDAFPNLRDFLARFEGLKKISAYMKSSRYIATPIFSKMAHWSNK
Particulars: AEA-DA-modified peptide GSTM1 P10649 109-123, SEQ ID NO 44; probe 100 μM, 12 replicates.

For assay [6], the target named is T6, AEA-DA-modified peptides in Neuro2a cells (Mus musculus, UniProt Q6PIC6).
T6 construct: endogenous in cells; host or cells: Neuro2a
Particulars: AEA-DA-modified peptide ATP1A3 Q6PIC6 350-376, SEQ ID NO 18; probe 100 μM, 12 replicates.

The target of assay [7] is T7, AEA-DA-modified peptides in Neuro2a cells (Mus musculus, UniProt P53811).
T7 construct: endogenous in cells; host or cells: Neuro2a
T7 sequence (P53811 whole entry): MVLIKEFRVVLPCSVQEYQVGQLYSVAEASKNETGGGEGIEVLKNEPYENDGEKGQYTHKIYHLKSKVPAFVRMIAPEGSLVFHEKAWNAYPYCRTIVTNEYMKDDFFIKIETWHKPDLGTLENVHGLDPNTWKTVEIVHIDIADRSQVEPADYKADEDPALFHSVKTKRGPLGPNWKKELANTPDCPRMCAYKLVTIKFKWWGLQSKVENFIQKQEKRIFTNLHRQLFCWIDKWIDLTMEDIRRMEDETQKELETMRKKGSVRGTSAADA
Particulars: AEA-DA-modified peptide PITPNB P53811 32-45, SEQ ID NO 86; probe 100 μM, 12 replicates.

Assay [8] has as its target T8, AEA-DA-modified peptides in Neuro2a cells (Mus musculus, UniProt P15626).
T8 construct: endogenous in cells; host or cells: Neuro2a
The conditions noted are these: AEA-DA-modified peptide GSTM2 P15626 109-123, SEQ ID NO 45; probe 100 μM, 12 replicates.

The target in assay [9] is T9, AEA-DA-modified peptides in Neuro2a cells (Mus musculus, UniProt P62814).
T9 construct: endogenous in cells; host or cells: Neuro2a
T9 sequence (P62814 whole entry): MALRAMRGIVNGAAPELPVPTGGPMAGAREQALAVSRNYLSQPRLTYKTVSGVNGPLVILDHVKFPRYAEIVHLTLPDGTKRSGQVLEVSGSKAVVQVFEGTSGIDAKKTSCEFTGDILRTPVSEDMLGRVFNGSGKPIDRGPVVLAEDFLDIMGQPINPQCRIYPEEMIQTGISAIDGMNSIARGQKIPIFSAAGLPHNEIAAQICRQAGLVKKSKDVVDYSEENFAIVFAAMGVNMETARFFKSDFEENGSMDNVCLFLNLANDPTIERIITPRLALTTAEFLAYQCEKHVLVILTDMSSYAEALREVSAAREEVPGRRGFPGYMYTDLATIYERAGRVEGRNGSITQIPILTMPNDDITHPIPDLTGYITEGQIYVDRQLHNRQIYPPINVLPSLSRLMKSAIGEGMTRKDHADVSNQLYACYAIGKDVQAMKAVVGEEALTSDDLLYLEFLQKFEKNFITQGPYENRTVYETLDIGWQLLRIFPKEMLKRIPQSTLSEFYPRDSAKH
Particulars: AEA-DA-modified peptide ATP6V1B2 P62814 68-82, SEQ ID NO 20; probe 100 μM, 12 replicates.

Assay [10] concerns the target T10, AEA-DA-modified peptides in Neuro2a cells (Mus musculus, UniProt Q80UU9).
T10 construct: endogenous in cells; host or cells: Neuro2a
Particulars: probe 100 μM, 12 replicates.

Assay [11] concerns the target T11, AEA-DA-modified peptides in Neuro2a cells (Mus musculus, UniProt Q9CQ45).
T11 construct: endogenous in cells; host or cells: Neuro2a
The conditions noted are these: AEA-DA-modified peptide NENF Q9CQ45 84-94, SEQ ID NO 68; probe 100 μM, 12 replicates.

T10 sequence (Q80UU9 whole entry): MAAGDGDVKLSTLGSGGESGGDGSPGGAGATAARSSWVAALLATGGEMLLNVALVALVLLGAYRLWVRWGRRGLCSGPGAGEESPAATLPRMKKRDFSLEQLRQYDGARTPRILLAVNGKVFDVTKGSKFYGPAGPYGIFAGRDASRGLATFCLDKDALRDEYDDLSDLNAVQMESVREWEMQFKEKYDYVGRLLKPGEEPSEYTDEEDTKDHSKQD
T1 sequence (Q8BMG8 whole entry): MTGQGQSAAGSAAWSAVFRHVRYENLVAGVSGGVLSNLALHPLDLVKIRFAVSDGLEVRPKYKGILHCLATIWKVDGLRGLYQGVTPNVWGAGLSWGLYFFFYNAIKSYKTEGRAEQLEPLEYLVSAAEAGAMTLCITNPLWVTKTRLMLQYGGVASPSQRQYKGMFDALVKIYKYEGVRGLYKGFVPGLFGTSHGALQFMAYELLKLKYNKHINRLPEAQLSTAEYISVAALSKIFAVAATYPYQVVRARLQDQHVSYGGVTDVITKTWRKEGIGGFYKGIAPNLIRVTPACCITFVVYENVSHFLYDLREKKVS
T11 sequence (Q9CQ45 31-171): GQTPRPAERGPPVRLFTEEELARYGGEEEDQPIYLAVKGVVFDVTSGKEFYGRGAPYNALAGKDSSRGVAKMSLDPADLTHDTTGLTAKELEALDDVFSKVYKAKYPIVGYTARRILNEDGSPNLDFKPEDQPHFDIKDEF
T8 sequence (P15626 whole entry): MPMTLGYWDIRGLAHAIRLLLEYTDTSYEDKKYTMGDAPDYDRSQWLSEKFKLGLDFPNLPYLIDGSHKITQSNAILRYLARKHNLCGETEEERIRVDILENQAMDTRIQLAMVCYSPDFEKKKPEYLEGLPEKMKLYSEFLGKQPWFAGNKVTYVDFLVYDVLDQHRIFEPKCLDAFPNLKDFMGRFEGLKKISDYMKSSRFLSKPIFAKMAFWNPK

Turning to `C#CCCCC1(CC/C=C\C/C=C\C/C=C\CCCC(=O)NCCO)N=N1` [AEA-DA, (5Z,8Z,11Z)-N-(2-hydroxyethyl)-14-(3-(pent-4-yn-1-yl)-3H-diazirin-3-yl)tetradeca-5,8,11-trienamide], the Times observed came to 6 in assay [1]; 11 in assay [2]; 12 in assay [3]; 2 in assay [4]; 4 in assay [5]; 2 in assay [6]. Besides, the Times observed in assay [7] came to 4; in assay [8] it was 5; in [9], 3; in [10] (AEA-DA-modified peptide PGRMC2 Q80UU9 74-92, SEQ ID NO 84), 2; in assay [10] (AEA-DA-modified peptide PGRMC2 Q80UU9 130-144, SEQ ID NO 83) it was 9; in assay [11] it was 4.
